Experimental data reported in ChEMBL document CHEMBL1153895, “Discovery of 4,6-bis-anilino-1H-pyrrolo[2,3-d]pyrimidines: potent inhibitors of the IGF-1R receptor tyrosine kinase” (Bioorg Med Chem Lett, 2009).
pIC50: −log10 of the molar value.

Columns and labels:
[1] = target: T1, Insulin-like growth factor 1 receptor (Homo sapiens, UniProt P08069); experiment: Inhibition of GST-tagged human IGF1R expressed in Sf9 cells by Wallac Victor fluorometer
[2] = target: T1, Insulin-like growth factor 1 receptor; experiment: Inhibition of human IGF1R phosphorylation expressed in HEK293 cells by DELFIA; format: cell-based
[3] = target: Aurora kinase B (Homo sapiens, UniProt Q96GD4); experiment: Inhibition of Aurora B
[4] = Clearance in rat at 2.3 mg/kg, iv; format: ADME, organism-based; design: dose 2.3 mg/kg, route intravenous; details: in vivo
[5] = tested on: Rattus norvegicus; experiment: Dose normalized AUC in rat at 2.3 mg/kg, iv and 10.7 mg/kg, po; format: ADME, organism-based; details: in vivo
[6] = tested on: Rattus norvegicus; experiment: Volume of distribution at steady state in rat at 2.3mg/kg, iv and 10.7 mg/kg, po; format: ADME, organism-based; design: dose 10.7 mg/kg, route oral; details: in vivo
[7] = Cmax in rat at 2.3mg/kg, iv and 10.7 mg/kg, po; format: ADME, organism-based; design: dose 10.7 mg/kg, route oral; details: in vivo
[8] = Bioavailability in rat at 2.3 mg/kg, iv and 10.7 mg/kg, po; format: ADME, organism-based; details: in vivo
[9] = Clearance in rat at 4.2 mg/kg, iv; format: ADME, organism-based; design: dose 4.2 mg/kg, route intravenous; details: in vivo
[10] = tested on: Rattus norvegicus; experiment: Dose normalized AUC in rat at 4.2 mg/kg, iv and 13.6 mg/kg, po; format: ADME, organism-based; details: in vivo
[11] = tested on: Rattus norvegicus; experiment: Volume of distribution at steady state in rat at 4.2mg/kg, iv and 13.6 mg/kg, po; format: ADME, organism-based; design: dose 13.6 mg/kg, route oral; details: in vivo
[12] = Cmax in rat at 4.2mg/kg, iv and 13.6 mg/kg, po; format: ADME, organism-based; design: dose 13.6 mg/kg, route oral; details: in vivo
[13] = Bioavailability in rat at 4.2 mg/kg, iv and 13.6 mg/kg, po; format: ADME, organism-based; details: in vivo
[14] = Clearance in rat at 2.0 mg/kg, iv; format: ADME, organism-based; design: dose 2 mg/kg, route intravenous; details: in vivo
[15] = tested on: Rattus norvegicus; experiment: Dose normalized AUC in rat at 2.0 mg/kg, iv and 10.6 mg/kg, po; format: ADME, organism-based; details: in vivo
[16] = tested on: Rattus norvegicus; experiment: Volume of distribution at steady state in rat at 2.0mg/kg, iv and 10.6 mg/kg, po; format: ADME, organism-based; design: dose 10.6 mg/kg, route oral; details: in vivo
[17] = Cmax in rat at 2.0mg/kg, iv and 10.6 mg/kg, po; format: ADME, organism-based; design: dose 10.6 mg/kg, route oral; details: in vivo
[18] = Bioavailability in rat at 2.0 mg/kg, iv and 10.6 mg/kg, po; format: ADME, organism-based; details: in vivo
[19] = tested on: Rattus norvegicus; experiment: Dose normalized AUC in rat at 2.1 mg/kg, iv and 9.2 mg/kg, po; format: ADME, organism-based; details: in vivo
[20] = Volume of distribution at steady state in rat at 2.1 mg/kg, iv and 9.2 mg/kg, po; format: ADME, organism-based; details: in vivo, read-out: Vdss
[21] = Cmax in rat at 2.1 mg/kg, iv and 9.2 mg/kg, po; format: ADME, organism-based; details: in vivo
[22] = Clearance in rat at 1.7 mg/kg, iv; format: ADME, organism-based; design: dose 1.7 mg/kg, route intravenous; details: in vivo
[23] = tested on: Rattus norvegicus; experiment: Dose normalized AUC in rat at 1.7 mg/kg, iv and 10.5 mg/kg, po; format: ADME, organism-based; details: in vivo
[24] = Volume of distribution at steady state in rat at 1.7 mg/kg, iv and 10.5 mg/kg, po; format: ADME, organism-based; details: in vivo, read-out: Vdss
[25] = Cmax in rat at 1.7 mg/kg, iv and 10.5 mg/kg, po; format: ADME, organism-based; details: in vivo
[26] = Bioavailability in rat at 1.7 mg/kg, iv and 10.5 mg/kg, po; format: ADME, organism-based; details: in vivo
[27] = target: Mitogen-activated protein kinase 8 (Homo sapiens, UniProt P45983); experiment: Inhibition of JNK1
[28] = target: ALK tyrosine kinase receptor (Homo sapiens, UniProt Q9UM73); experiment: Inhibition of ALK
[29] = target: Insulin receptor (Homo sapiens, UniProt P06213); experiment: Inhibition of human IR
Chain of Insulin receptor (P06213 28-758 limits assumed): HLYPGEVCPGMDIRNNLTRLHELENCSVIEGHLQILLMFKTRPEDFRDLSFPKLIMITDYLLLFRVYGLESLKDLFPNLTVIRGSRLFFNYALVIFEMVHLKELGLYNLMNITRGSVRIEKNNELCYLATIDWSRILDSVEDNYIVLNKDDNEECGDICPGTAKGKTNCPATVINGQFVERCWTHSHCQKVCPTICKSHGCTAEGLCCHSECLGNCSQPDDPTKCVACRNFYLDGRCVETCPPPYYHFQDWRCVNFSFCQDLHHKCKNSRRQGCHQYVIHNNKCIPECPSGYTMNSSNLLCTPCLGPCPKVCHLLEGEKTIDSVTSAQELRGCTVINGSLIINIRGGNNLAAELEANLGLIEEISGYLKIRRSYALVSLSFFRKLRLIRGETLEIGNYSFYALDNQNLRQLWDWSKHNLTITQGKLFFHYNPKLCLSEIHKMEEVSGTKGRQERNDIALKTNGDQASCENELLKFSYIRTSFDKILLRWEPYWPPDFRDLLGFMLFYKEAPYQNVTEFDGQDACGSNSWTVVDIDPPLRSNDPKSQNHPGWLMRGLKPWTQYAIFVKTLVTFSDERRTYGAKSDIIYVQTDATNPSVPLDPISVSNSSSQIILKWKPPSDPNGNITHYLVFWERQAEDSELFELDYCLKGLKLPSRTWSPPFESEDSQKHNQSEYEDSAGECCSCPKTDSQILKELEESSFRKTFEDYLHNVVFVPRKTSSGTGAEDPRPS
Chain of Insulin receptor (P06213 763-1382 limits assumed): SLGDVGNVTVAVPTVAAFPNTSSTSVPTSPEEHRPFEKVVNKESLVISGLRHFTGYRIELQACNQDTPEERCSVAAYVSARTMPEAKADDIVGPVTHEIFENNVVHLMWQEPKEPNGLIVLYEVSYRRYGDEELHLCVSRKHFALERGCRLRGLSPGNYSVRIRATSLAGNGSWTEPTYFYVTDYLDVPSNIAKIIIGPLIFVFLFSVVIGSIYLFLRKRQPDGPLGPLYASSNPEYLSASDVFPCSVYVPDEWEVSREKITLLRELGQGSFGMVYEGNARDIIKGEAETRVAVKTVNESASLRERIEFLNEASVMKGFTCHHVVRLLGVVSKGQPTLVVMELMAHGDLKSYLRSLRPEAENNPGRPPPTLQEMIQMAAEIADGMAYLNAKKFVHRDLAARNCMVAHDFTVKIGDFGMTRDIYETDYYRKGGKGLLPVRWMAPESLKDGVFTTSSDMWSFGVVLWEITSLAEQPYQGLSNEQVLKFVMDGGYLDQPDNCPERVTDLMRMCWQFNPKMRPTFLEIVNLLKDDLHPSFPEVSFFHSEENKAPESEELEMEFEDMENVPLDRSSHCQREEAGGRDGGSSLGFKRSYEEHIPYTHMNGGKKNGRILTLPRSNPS

Chain of Aurora kinase B (Q96GD4 whole entry): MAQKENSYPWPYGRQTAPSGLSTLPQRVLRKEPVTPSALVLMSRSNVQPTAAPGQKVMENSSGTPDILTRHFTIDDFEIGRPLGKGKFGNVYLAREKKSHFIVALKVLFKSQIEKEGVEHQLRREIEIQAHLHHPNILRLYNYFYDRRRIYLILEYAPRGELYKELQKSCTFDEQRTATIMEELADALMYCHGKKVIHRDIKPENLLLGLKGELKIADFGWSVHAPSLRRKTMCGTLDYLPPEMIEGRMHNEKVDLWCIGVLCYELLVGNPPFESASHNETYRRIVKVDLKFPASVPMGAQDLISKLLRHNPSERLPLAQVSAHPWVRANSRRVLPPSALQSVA
T1 sequence (P08069 31-736 limits assumed): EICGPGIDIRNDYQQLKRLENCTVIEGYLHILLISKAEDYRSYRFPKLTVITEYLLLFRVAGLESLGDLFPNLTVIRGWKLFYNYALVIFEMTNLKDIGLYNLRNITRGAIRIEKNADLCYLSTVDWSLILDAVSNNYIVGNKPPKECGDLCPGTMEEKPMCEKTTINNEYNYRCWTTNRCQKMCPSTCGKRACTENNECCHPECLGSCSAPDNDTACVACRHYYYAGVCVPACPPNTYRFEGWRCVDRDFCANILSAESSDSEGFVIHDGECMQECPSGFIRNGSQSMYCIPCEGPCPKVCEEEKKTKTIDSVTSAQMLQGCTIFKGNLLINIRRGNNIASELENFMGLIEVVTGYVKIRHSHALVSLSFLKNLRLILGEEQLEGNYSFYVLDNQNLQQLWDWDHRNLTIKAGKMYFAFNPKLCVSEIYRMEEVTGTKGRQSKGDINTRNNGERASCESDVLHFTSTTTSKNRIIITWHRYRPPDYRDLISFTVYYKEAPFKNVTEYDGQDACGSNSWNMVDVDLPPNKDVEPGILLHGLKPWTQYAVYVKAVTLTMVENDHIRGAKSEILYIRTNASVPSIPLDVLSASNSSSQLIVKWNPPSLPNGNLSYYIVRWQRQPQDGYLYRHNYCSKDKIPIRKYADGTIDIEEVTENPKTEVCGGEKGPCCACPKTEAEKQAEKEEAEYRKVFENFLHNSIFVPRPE
T1 sequence (P08069 741-1367 limits assumed): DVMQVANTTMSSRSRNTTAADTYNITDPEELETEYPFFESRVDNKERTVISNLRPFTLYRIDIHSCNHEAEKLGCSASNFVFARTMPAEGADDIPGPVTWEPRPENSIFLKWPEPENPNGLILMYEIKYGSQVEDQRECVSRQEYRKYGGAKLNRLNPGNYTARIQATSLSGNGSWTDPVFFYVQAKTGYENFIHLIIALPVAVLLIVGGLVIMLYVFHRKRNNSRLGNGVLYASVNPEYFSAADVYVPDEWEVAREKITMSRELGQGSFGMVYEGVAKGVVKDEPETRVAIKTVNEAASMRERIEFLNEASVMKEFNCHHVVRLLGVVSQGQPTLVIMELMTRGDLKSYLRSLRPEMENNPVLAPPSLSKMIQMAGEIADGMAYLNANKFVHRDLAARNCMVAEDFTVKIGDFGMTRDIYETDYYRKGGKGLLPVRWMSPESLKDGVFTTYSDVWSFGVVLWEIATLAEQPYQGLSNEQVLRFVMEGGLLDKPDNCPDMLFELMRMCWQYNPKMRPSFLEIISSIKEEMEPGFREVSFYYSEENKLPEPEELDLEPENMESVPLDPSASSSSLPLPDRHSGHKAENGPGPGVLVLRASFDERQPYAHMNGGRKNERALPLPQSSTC
Chain of Mitogen-activated protein kinase 8 (P45983 whole entry): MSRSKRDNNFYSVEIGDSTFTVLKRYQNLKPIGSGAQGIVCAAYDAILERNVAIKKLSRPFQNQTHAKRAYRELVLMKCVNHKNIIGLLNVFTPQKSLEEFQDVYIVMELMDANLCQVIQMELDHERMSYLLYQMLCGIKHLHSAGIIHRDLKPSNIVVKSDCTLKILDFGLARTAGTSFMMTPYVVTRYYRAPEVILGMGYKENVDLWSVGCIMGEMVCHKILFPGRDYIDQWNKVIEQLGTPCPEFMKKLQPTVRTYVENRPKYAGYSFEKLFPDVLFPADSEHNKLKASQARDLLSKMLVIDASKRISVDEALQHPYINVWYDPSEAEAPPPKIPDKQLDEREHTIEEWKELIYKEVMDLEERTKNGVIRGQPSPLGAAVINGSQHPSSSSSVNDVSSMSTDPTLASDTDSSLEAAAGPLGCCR
Chain of ALK tyrosine kinase receptor (Q9UM73 whole entry): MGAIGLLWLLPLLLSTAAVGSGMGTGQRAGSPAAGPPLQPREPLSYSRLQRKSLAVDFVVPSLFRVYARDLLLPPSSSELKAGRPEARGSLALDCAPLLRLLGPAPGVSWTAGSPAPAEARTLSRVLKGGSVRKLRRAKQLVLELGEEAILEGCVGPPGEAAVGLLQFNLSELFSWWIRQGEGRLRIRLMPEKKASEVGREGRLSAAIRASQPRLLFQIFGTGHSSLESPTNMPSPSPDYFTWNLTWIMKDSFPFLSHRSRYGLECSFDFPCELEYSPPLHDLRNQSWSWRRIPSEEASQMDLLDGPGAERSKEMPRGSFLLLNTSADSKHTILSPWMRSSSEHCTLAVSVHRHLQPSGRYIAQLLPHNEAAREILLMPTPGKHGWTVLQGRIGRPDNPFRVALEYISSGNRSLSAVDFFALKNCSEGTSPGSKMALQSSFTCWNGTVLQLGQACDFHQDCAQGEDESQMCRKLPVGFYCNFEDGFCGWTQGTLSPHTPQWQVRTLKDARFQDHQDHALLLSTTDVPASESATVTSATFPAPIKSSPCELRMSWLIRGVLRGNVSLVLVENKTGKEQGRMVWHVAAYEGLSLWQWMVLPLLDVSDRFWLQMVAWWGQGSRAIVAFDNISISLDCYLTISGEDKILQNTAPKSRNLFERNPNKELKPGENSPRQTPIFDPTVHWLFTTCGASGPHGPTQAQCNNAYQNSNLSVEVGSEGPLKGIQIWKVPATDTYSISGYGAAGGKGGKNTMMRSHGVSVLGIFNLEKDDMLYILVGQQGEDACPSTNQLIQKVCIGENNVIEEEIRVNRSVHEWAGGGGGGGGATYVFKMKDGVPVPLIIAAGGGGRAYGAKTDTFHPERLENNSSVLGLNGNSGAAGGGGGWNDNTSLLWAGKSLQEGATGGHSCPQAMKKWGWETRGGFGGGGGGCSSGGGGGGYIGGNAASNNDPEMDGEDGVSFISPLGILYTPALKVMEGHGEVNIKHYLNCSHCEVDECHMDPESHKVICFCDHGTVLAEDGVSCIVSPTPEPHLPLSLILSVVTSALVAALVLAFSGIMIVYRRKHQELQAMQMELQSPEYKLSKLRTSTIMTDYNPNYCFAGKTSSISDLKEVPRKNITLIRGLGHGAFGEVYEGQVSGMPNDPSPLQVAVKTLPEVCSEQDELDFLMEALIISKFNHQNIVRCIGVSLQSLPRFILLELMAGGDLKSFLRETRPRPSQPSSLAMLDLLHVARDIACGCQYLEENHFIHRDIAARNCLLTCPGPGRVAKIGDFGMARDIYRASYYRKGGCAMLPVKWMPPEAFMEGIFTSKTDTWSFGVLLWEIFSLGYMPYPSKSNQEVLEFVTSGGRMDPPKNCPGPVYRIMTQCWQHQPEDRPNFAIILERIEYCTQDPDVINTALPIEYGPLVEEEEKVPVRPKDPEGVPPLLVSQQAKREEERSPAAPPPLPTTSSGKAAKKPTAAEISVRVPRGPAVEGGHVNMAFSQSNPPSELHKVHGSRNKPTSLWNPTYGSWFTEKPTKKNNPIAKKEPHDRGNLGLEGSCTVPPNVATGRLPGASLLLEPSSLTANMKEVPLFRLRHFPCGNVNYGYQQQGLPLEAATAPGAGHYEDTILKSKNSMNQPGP

| SMILES | pIC50 [1] | pIC50 [2] | further results |
| --- | --- | --- | --- |
| CCCN1CCC=C(c2ccc(Nc3nc(Nc4ccccc4C(N)=O)c4cc[nH]c4n3)c(F)c2)C1 | 8.80 | 6.50 | pIC50 [3]: 5.80 |
| COc1cc(N2CCN(C(C)C)CC2)ccc1Nc1nc(Nc2cc(F)ccc2C(N)=O)c2cc[nH]c2n1 | 9.10 | 6.89 |  |
| COc1cc(N2CCN(C(C)C)CC2)ccc1Nc1nc(Nc2ccc(F)c(F)c2C(N)=O)c2cc[nH]c2n1 |  | 6.67 |  |
| COc1cc(N2CCN(C(C)C)CC2)ccc1Nc1nc(Nc2cc(F)cc(F)c2C(N)=O)c2cc[nH]c2n1 |  | 7.05 | clearance [4]: 46 mL/min/kg; AUC [5]: 117 ng·h/mL/mg/kg; Vdss [6]: 11 L/kg; Cmax [7]: 200 ng/mL; bioavailability [8]: 37% |
| COc1cc(C)c(N2CCN(C(C)C)CC2)cc1Nc1nc(Nc2cccc(F)c2C(N)=O)c2cc[nH]c2n1 | 7.70 | 6.57 |  |
| CCCN1CCC=C(c2ccc(Nc3nc(Nc4ccccc4C(N)=O)c4cc[nH]c4n3)c(C(F)(F)F)c2)C1 | 7.70 | < 5.00 |  |
| COc1c(Nc2nc(Nc3cccc(F)c3C(N)=O)c3cc[nH]c3n2)ccc(N2CCN(C(C)C)CC2)c1F | 8.40 | 6.24 |  |
| CCCN1CCC=C(c2ccc(Nc3nc(Nc4cc(F)ccc4C(N)=O)c4cc[nH]c4n3)c(OC(C)C)c2)C1 | 8.49 | 5.65 |  |
| COc1cc(N2CCN(C(C)C)CC2)ccc1Nc1nc(Nc2cc(F)c(F)cc2C(N)=O)c2cc[nH]c2n1 | 9.30 | 7.28 | clearance [9]: 64 mL/min/kg; AUC [10]: 114 ng·h/mL/mg/kg; Vdss [11]: 17 L/kg; Cmax [12]: 152 ng/mL; bioavailability [13]: 45% |
| CNC(=O)c1c(F)cccc1Nc1nc(Nc2ccc(N3CCN(C(C)C)CC3)cc2OC)nc2[nH]ccc12 | 8.30 | 6.43 | clearance [14]: 32 mL/min/kg; AUC [15]: 277 ng·h/mL/mg/kg; Vdss [16]: 22.3 L/kg; Cmax [17]: 418 ng/mL; bioavailability [18]: 83% |
| COc1cc(N2CCN(C(C)C)CC2)ccc1N(C)c1nc(Nc2cccc(F)c2C(N)=O)c2cc[nH]c2n1 | 7.30 |  |  |
| COc1cc(N2CCN(C(C)C)CC2)ccc1Nc1nc(Nc2cccc(F)c2C(N)=O)c2ccn(C)c2n1 | 5.00 |  |  |
| COc1cc(N2CCN(C(C)C)CC2)c(OC)cc1Nc1nc(Nc2cccc(F)c2C(N)=O)c2cc[nH]c2n1 | 8.49 | 7.05 |  |
| COc1cc(N2CCN(C(C)C)CC2)ccc1Nc1nc(Nc2ccc(F)cc2C(=O)NO)c2cc[nH]c2n1 | 8.20 | 6.21 |  |
| COc1cc(N2CCN(C(C)C)CC2)c(F)cc1Nc1nc(Nc2cccc(F)c2C(N)=O)c2cc[nH]c2n1 | 8.70 | 6.72 |  |
| COc1cc(N2CCN(C(C)C)CC2)c(C)cc1Nc1nc(Nc2cccc(F)c2C(N)=O)c2cc[nH]c2n1 | 8.70 | 7.42 |  |
| CCCN1CCC=C(c2ccc(Nc3nc(Nc4cc(F)ccc4C(N)=O)c4cc[nH]c4n3)c(OC)c2)C1 | 9.10 | 7.09 |  |

| SMILES | pIC50 [1] | pIC50 [2] | further results |
| --- | --- | --- | --- |
| CCCN1CCN(c2ccc(Nc3nc(Nc4cc(F)ccc4C(N)=O)c4cc[nH]c4n3)c(OC)c2)CC1 | 8.80 | 6.91 |  |
| CCCN1CCC=C(c2ccc(Nc3nc(Nc4ccccc4C(N)=O)c4cc[nH]c4n3)cc2)C1 | 8.80 |  | pIC50 [3]: 8.30 |
| COc1cc(N2CCOCC2)ccc1Nc1nc(Nc2cc(F)ccc2C(N)=O)c2cc[nH]c2n1 | 8.80 | 7.17 |  |
| COc1cc(N2CCN(C(C)C)CC2)ccc1Nc1nc(Nc2ccc(F)cc2C(=O)NCCO)c2cc[nH]c2n1 | 8.30 | 6.19 |  |
| COc1cc(N2CCN(C(C)C)CC2)ccc1Nc1nc(Nc2cccc(F)c2C(N)=O)c2cc[nH]c2n1 |  | 6.96 | AUC [19]: 156 ng·h/mL/mg/kg; Vd [20]: 18.5 L/kg; Cmax [21]: 184 ng/mL |
| COCCNC(=O)c1cc(F)ccc1Nc1nc(Nc2ccc(N3CCN(C(C)C)CC3)cc2OC)nc2[nH]ccc12 | 7.60 | 6.12 |  |
| COc1cc(N2CCN(C(C)C)CC2)c(Cl)cc1Nc1nc(Nc2cccc(F)c2C(N)=O)c2cc[nH]c2n1 | 8.80 | 7.19 |  |
| COc1cc(N2CCN(C(C)C)CC2)ccc1Nc1nc(Nc2ccccc2C(N)=O)c2cc[nH]c2n1 | 9.00 | 7.15 | clearance [22]: 142 mL/min/kg; AUC [23]: 35 ng·h/mL/mg/kg; Vd [24]: 19.5 L/kg; Cmax [25]: 69 ng/mL; bioavailability [26]: 37% |
| CCCN1CCC=C(c2ccc(Nc3nc(Nc4ccccc4C(N)=O)c4cc[nH]c4n3)c(OC)c2)C1 | 9.22 | 6.98 | pIC50 [3]: < 5.00 |
| CNC(=O)c1cc(F)ccc1Nc1nc(Nc2ccc(N3CCN(C(C)C)CC3)cc2OC)nc2[nH]ccc12 | 8.49 | 6.87 |  |
| COc1c(Nc2nc(Nc3cccc(F)c3C(N)=O)c3cc[nH]c3n2)ccc(N2CCN(C(C)C)CC2)c1C | 8.10 | 5.43 |  |
| COc1ccc(N2CCN(C(C)C)CC2)cc1Nc1nc(Nc2cccc(F)c2C(N)=O)c2cc[nH]c2n1 | 8.40 | 6.80 |  |
| CCCN1CCCC(c2ccc(Nc3nc(Nc4cc(F)ccc4C(N)=O)c4cc[nH]c4n3)c(OC)c2)C1 (racemic) [GSK-1173862A] | 9.40 | 7.22 |  |
| CCCN1CCC=C(c2ccc(Nc3nc(Nc4ccccc4C(N)=O)c4cc[nH]c4n3)c(C)c2)C1 [GSK-994854A] | 8.30 |  | pIC50 [27]: 7.92; pIC50 [28]: 9.00; pIC50 [29]: 8.20 |
| COc1cc(N2CCN(C(C)C)CC2)ccc1Nc1nc(Nc2ccc(F)cc2C(N)=O)c2cc[nH]c2n1 [GSK-1220512A] | 9.10 | 7.22 |  |
| CCCN1CCC(c2ccc(Nc3nc(Nc4cc(F)ccc4C(N)=O)c4cc[nH]c4n3)c(OC)c2)CC1 [GSK-1326255A] | 9.52 | 7.33 |  |
| COc1cc(N2CCN(C(C)C)CC2)ccc1Nc1nc(Nc2ccc(F)cc2C(=O)NC[C@@H](O)CO)c2cc[nH]c2n1 [GSK-1392956A] | 7.80 | 5.25 |  |
